From the supplement of paper PMC7840683
± gives the standard deviation of the averaged measurements.

System: HepaRG
Experiment: LDH release cytotoxicity, % of total lysis control; higher = more cytotoxic
Conditions: 48 h
How it was run: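 Duplicate wells of single-lot HepaRG cells, grown on collagen I-coated 96-well plates, received eight-point half-log series of test chemicals with 100 µM as the top concentration. Exposure lasted 48 h in serum-free induction medium with 0.5% DMSO, while total lysis wells received 0.1% Triton X. Resorufin fluorescence (CytoTox-ONE, Tecan Safire) was used to quantify LDH leaked into 50 µL of spent medium. Values for percent cytotoxicity were normalized to on-plate vehicle and total lysis controls and averaged across the duplicates.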

Work on `CCCC1=NC(=S)NC(=O)C1` [6-Propyl-2-thiouracil] yielded an LDH release cytotoxicity (0.03162 µM) of -1.25 ± 0.13%, an LDH release cytotoxicity (0.1 µM) of -1.68 ± 0.29% and an LDH release cytotoxicity (0.3162278 µM) of -2.72 ± 0.31%. The LDH release cytotoxicity (1 µM) was -2.49 ± 0.1%, the LDH release cytotoxicity (3.16228 µM) was -2.28 ± 0.038% and the LDH release cytotoxicity (10 µM) was -1.9 ± 0.03%. It also gave an LDH release cytotoxicity (31.6228 µM) of -1.25 ± 0.71% and an LDH release cytotoxicity (100 µM) of 0.0182 ± 1.5%.
Work on `Nc1nc2nc[nH]c2c(=S)[nH]1` [6-Thioguanine] yielded an LDH release cytotoxicity (0.031623 µM) of 1.04 ± 0.63%, an LDH release cytotoxicity (0.1 µM) of -2.6 ± 0.7% and an LDH release cytotoxicity (0.316228 µM) of -2.87 ± 0.84%. It also gave an LDH release cytotoxicity (1 µM) of -2.88 ± 0.19%, an LDH release cytotoxicity (3.16228 µM) of -2.5 ± 0.32% and an LDH release cytotoxicity (10 µM) of -2.64 ± 0.061%. For the same compound, the LDH release cytotoxicity (31.6228 µM) was -1.86 ± 0.074% and the LDH release cytotoxicity (100 µM) was -0.0388 ± 0.38%.
With `OCCC(F)(F)C(F)(F)C(F)(F)C(F)(F)C(F)(F)C(F)(F)F` [6:2 Fluorotelomer alcohol] the LDH release cytotoxicity (0.03162 µM) was -0.419 ± 0.26%, the LDH release cytotoxicity (0.1 µM) was -1.392 ± 0.012% and the LDH release cytotoxicity (0.3162278 µM) was -1.67 ± 0.41%. For the same compound, the LDH release cytotoxicity (1 µM) was -2.28 ± 0.32%, the LDH release cytotoxicity (3.16228 µM) was -1.52 ± 0.59% and the LDH release cytotoxicity (10 µM) was -1.12 ± 1.1%. For the same compound, the LDH release cytotoxicity (31.6228 µM) was -1.141 ± 0.005% and the LDH release cytotoxicity (100 µM) was -0.148 ± 0.73%.
Compound `C=C(C)C(=O)OCCC(F)(F)C(F)(F)C(F)(F)C(F)(F)C(F)(F)C(F)(F)F` [6:2 Fluorotelomer methacrylate] has an LDH release cytotoxicity (0.03162 µM) of -0.461 ± 0.18%, an LDH release cytotoxicity (0.1 µM) of 0.735 ± 1.2% and an LDH release cytotoxicity (0.3162278 µM) of 0.518 ± 0.41%. For the same compound, the LDH release cytotoxicity (1 µM) was -0.0542 ± 0.29%, the LDH release cytotoxicity (3.16228 µM) was 0.38 ± 0.35% and the LDH release cytotoxicity (10 µM) was 0.535 ± 0.98%. It also gave an LDH release cytotoxicity (31.6228 µM) of 0.834 ± 0.34% and an LDH release cytotoxicity (100 µM) of 1.55 ± 0.43%.
With `O=c1c(-c2ccc(O)cc2)coc2cc(O)ccc12` [7,4'-Dihydroxyisoflavone] the LDH release cytotoxicity (0.03162 µM) was -1.77 ± 0.55%, the LDH release cytotoxicity (0.1 µM) was -1.95 ± 0.049% and the LDH release cytotoxicity (0.3162278 µM) was -1.45 ± 0.29%. For the same compound, the LDH release cytotoxicity (1 µM) was -2.21 ± 0.22%, the LDH release cytotoxicity (3.16228 µM) was -1.87 ± 0.47% and the LDH release cytotoxicity (10 µM) was -0.343 ± 0.097%. It also gave an LDH release cytotoxicity (31.6228 µM) of -0.854 ± 0.4% and an LDH release cytotoxicity (100 µM) of 0.307 ± 0.89%.
For `Cc1c2ccccc2c(C)c2c1ccc1ccccc12` [7,12-Dimethylbenz(a)anthracene], the LDH release cytotoxicity (0.03162 µM) was -1.46 ± 0.43%, the LDH release cytotoxicity (0.1 µM) was -1.68 ± 0.46% and the LDH release cytotoxicity (0.3162278 µM) was -1.43 ± 0.069%. It also gave an LDH release cytotoxicity (1 µM) of -1.27 ± 1.4%, an LDH release cytotoxicity (3.16228 µM) of -1.45 ± 0.084% and an LDH release cytotoxicity (10 µM) of -1.64 ± 0.1%. It also gave an LDH release cytotoxicity (31.6228 µM) of 1.86 ± 0.39% and an LDH release cytotoxicity (100 µM) of -0.663 ± 0.032%.
Work on `CCC12COCN1COC2` [7a-Ethyldihydro-1H,3H,5H-oxazolo(3,4-c)oxazole] yielded an LDH release cytotoxicity (0.03162 µM) of -1.45 ± 0.8%, an LDH release cytotoxicity (0.1 µM) of -1.96 ± 0.61% and an LDH release cytotoxicity (0.3162278 µM) of -1.68 ± 0.1%. It also gave an LDH release cytotoxicity (1 µM) of -1.43 ± 1.1%, an LDH release cytotoxicity (3.16228 µM) of -1.46 ± 0.12% and an LDH release cytotoxicity (10 µM) of -1.34 ± 0.19%. The LDH release cytotoxicity (31.6228 µM) was 0.0307 ± 0.78% and the LDH release cytotoxicity (100 µM) was 0.471 ± 1.6%.
`Oc1cccc2cccnc12` [8-Hydroxyquinoline] gave an LDH release cytotoxicity (0.03162 µM) of -1.07 ± 0.79%, an LDH release cytotoxicity (0.1 µM) of -1.23 ± 0.047% and an LDH release cytotoxicity (0.3162278 µM) of -1.16 ± 0.3%. The LDH release cytotoxicity (1 µM) was -1.2 ± 0.24%, the LDH release cytotoxicity (3.16228 µM) was -1.01 ± 0.27% and the LDH release cytotoxicity (10 µM) was -0.111 ± 1.7%. It also gave an LDH release cytotoxicity (31.6228 µM) of 0.218 ± 1.5% and an LDH release cytotoxicity (100 µM) of 2.33 ± 0.36%.
In the case of `OCCC(F)(F)C(F)(F)C(F)(F)C(F)(F)C(F)(F)C(F)(F)C(F)(F)C(F)(F)F` [8:2 Fluorotelomer alcohol], the LDH release cytotoxicity (0.031623 µM) is reported as -0.581 ± 1.7%, the LDH release cytotoxicity (0.1 µM) is reported as -0.0838 ± 1.2% and the LDH release cytotoxicity (0.316228 µM) is reported as -1.41 ± 0.61%. It also gave an LDH release cytotoxicity (1 µM) of -2.22 ± 0.18%, an LDH release cytotoxicity (3.16228 µM) of -2.23 ± 0.56% and an LDH release cytotoxicity (10 µM) of -1.35 ± 0.57%. The LDH release cytotoxicity (31.6228 µM) was -1.87 ± 0.66% and the LDH release cytotoxicity (100 µM) was 0.405 ± 2.2%.
`Oc1cc2ccccc2c2ccccc12` [9-Phenanthrol] showed an LDH release cytotoxicity (0.03162 µM) of -1.97 ± 0.66%, an LDH release cytotoxicity (0.1 µM) of -2.29 ± 0.44% and an LDH release cytotoxicity (0.3162278 µM) of -2.11 ± 0.28%. It also gave an LDH release cytotoxicity (1 µM) of -2.1 ± 0.98%, an LDH release cytotoxicity (3.16228 µM) of -2.21 ± 0.069% and an LDH release cytotoxicity (10 µM) of -2.2 ± 0.41%. It also gave an LDH release cytotoxicity (31.6228 µM) of -2.94 ± 0.08% and an LDH release cytotoxicity (100 µM) of 0.0725 ± 0.99%.
`C=CCCCCCCCCC(=O)O` [10-Undecenoic acid] was tested, and the LDH release cytotoxicity (0.03162 µM) was 0.758 ± 0.055%, the LDH release cytotoxicity (0.1 µM) was -0.653 ± 0.55% and the LDH release cytotoxicity (0.3162278 µM) was -0.789 ± 0.79%. It also gave an LDH release cytotoxicity (1 µM) of -0.96 ± 0.32%, an LDH release cytotoxicity (3.16228 µM) of -0.518 ± 0.55% and an LDH release cytotoxicity (10 µM) of -0.534 ± 0.037%. The LDH release cytotoxicity (31.6228 µM) was -1.07 ± 0.49% and the LDH release cytotoxicity (100 µM) was -0.0729 ± 0.15%.
Work on `CC12CCC(=O)C=C1CCC1C2CCC2(C)C1CCC2(C)O` (stereo unspecified) [17-Methyltestosterone] yielded an LDH release cytotoxicity (0.03162 µM) of -1.79 ± 1.4%, an LDH release cytotoxicity (0.1 µM) of -1.97 ± 0.62% and an LDH release cytotoxicity (0.3162278 µM) of -1.97 ± 1.4%. It also gave an LDH release cytotoxicity (1 µM) of -1.95 ± 2.3%, an LDH release cytotoxicity (3.16228 µM) of -2.67 ± 0.81% and an LDH release cytotoxicity (10 µM) of -2.51 ± 1.4%. It also gave an LDH release cytotoxicity (31.6228 µM) of -2.52 ± 1.9% and an LDH release cytotoxicity (100 µM) of -1.06 ± 1.5%.
Compound `CC12CCC3c4ccc(O)cc4CCC3C1CCC2O` (stereo not drawn) [17alpha-Estradiol] has an LDH release cytotoxicity (0.03162 µM) of -0.65 ± 1.4%, an LDH release cytotoxicity (0.1 µM) of -1.91 ± 0.5% and an LDH release cytotoxicity (0.3162278 µM) of -1.67 ± 0.056%. For the same compound, the LDH release cytotoxicity (1 µM) was -1.6 ± 0.054%, the LDH release cytotoxicity (3.16228 µM) was -1.26 ± 0.039% and the LDH release cytotoxicity (10 µM) was -1.72 ± 0.24%. The LDH release cytotoxicity (31.6228 µM) was -0.072 ± 0.52% and the LDH release cytotoxicity (100 µM) was 1.51 ± 0.69%.
For `C#CC1(O)CCC2C3CCc4cc(O)ccc4C3CCC21C` (stereo not drawn) [17alpha-Ethinylestradiol], the LDH release cytotoxicity (0.03162 µM) was -0.935 ± 0.49%, the LDH release cytotoxicity (0.1 µM) was -0.618 ± 0.51% and the LDH release cytotoxicity (0.3162278 µM) was -0.346 ± 0.13%. It also gave an LDH release cytotoxicity (1 µM) of -0.588 ± 0.39%, an LDH release cytotoxicity (3.16228 µM) of -0.768 ± 0.53% and an LDH release cytotoxicity (10 µM) of -0.554 ± 1.1%. The LDH release cytotoxicity (31.6228 µM) was 0.171 ± 0.51% and the LDH release cytotoxicity (100 µM) was 1.412 ± 0.013%.
Compound `CC(=O)C1(O)CCC2C3CCC4=CC(=O)CCC4(C)C3CCC21C` (stereo not drawn) [17alpha-Hydroxyprogesterone] has an LDH release cytotoxicity (0.03162 µM) of -0.419 ± 1.4%, an LDH release cytotoxicity (0.1 µM) of -1.4 ± 0.7% and an LDH release cytotoxicity (0.3162278 µM) of -2.18 ± 0.12%. For the same compound, the LDH release cytotoxicity (1 µM) was -1.25 ± 0.037%, the LDH release cytotoxicity (3.16228 µM) was -0.766 ± 0.45% and the LDH release cytotoxicity (10 µM) was 0.609 ± 1.4%. The LDH release cytotoxicity (31.6228 µM) was -0.397 ± 0.26% and the LDH release cytotoxicity (100 µM) was 0.684 ± 1.3%.
Compound `CC12CCC3c4ccc(O)cc4CCC3C1CCC2O` (stereo not drawn) [17beta-Estradiol] has an LDH release cytotoxicity (0.01581 µM) of -0.962 ± 0.82%, an LDH release cytotoxicity (0.05 µM) of -1.17 ± 0.59% and an LDH release cytotoxicity (0.1581139 µM) of -1.03 ± 0.66%. The LDH release cytotoxicity (0.5 µM) was -1.37 ± 0.08%, the LDH release cytotoxicity (1.5811388 µM) was -1.1 ± 0.62% and the LDH release cytotoxicity (5 µM) was -0.844 ± 0.077%. For the same compound, the LDH release cytotoxicity (15.8114 µM) was -0.113 ± 0.6% and the LDH release cytotoxicity (50 µM) was 6.2 ± 1.8%.
Work on `CC12C=CC3=C4CCC(=O)C=C4CCC3C1CCC2O` (stereo not drawn) [17beta-Trenbolone] yielded an LDH release cytotoxicity (0.03162 µM) of -1.81 ± 0.85%, an LDH release cytotoxicity (0.1 µM) of -1.96 ± 0.88% and an LDH release cytotoxicity (0.3162278 µM) of -2.23 ± 1%. For the same compound, the LDH release cytotoxicity (1 µM) was -1.89 ± 0.49%, the LDH release cytotoxicity (3.16228 µM) was -1.55 ± 0.47% and the LDH release cytotoxicity (10 µM) was -1.02 ± 0.27%. The LDH release cytotoxicity (31.6228 µM) was -1.05 ± 0.63% and the LDH release cytotoxicity (100 µM) was 0.211 ± 0.55%.
